BindingDB's records for doi:10.1016/j.bmcl.2020.127696 (National Institutes of Health, 2021)

Target: D(1B) dopamine receptor (Homo sapiens, UniProt P21918)
Assay: Positive allosteric modulator activity at human dopamine D5 receptor expressed in CHO-K1 cells assessed as potentiation of dopamine-induced beta-arrestin2 recruitment by measuring dopamine EC50 at 50 uM incubated for 90 mins by PathHunter assay (Rvb = 81.7 nM)

Chain of D(1B) dopamine receptor (P21918 whole entry): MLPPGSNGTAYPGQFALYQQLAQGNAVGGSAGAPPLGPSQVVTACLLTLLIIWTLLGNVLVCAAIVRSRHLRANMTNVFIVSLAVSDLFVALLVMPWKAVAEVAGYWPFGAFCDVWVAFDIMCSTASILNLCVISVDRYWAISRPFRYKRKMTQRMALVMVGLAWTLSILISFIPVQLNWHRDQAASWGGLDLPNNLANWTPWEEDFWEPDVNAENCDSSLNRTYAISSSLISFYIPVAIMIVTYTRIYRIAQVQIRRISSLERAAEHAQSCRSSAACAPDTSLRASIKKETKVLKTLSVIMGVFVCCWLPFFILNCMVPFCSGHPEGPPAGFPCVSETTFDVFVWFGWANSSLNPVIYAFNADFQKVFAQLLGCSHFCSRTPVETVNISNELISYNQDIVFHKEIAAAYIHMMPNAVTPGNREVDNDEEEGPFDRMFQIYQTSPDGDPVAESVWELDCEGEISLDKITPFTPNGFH

| EC50 [nM] | Structure (SMILES) |
| --- | --- |
| 95 | Cn1c2ccccc2c(=O)c2c(=O)n(-c3ccccc3)c(C3CC3)nc21 |
| 82 | Cn1c2ccccc2c(=O)c2c(=O)[nH]c(C3CCCC3)nc21 |
| 94 | COc1ccc(-n2c(CC3CCCCC3)nc3c(c(=O)c4ccccc4n3C)c2=O)cc1Cl |
| 95 | Cn1c2ccccc2c(=O)c2c(=O)n(-c3cccc(Cl)c3)c(CC3CCCCC3)nc21 |
| 74 | Cn1c2ccccc2c(=O)c2c(=O)n(-c3ccc(Cl)cc3)c(CC3CCCCC3)nc21 |
| 168 | Cc1ccc(-n2c(CC3CCCCC3)nc3c(c(=O)c4ccccc4n3C)c2=O)cc1 |
| 49 | Cn1c2ccccc2c(=O)c2c(=O)n(-c3ccccc3)c(CC3CCCCC3)nc21 |
| 28 | COc1ccc(-n2c(C3CCCC3)nc3c(c(=O)c4ccccc4n3C)c2=O)cc1Cl |
| 25 | COc1ccc(-n2c(C3CCCC3)nc3c(c(=O)c4ccccc4n3C)c2=O)cc1 |
| 43 | Cn1c2ccccc2c(=O)c2c(=O)n(-c3cccc(Cl)c3)c(C3CCCC3)nc21 |
| 43 | Cn1c2ccccc2c(=O)c2c(=O)n(-c3ccc(Cl)cc3)c(C3CCCC3)nc21 |
| 27 | Cc1ccc(-n2c(C3CCCC3)nc3c(c(=O)c4ccccc4n3C)c2=O)cc1 |
| 80 | Cn1c2ccccc2c(=O)c2c(=O)n(-c3ccccc3)c(C3CCCC3)nc21 |
| 58 | COc1ccc(-n2c(CC(C)C)nc3c(c(=O)c4ccccc4n3C)c2=O)cc1Cl |
| 34 | COc1ccc(-n2c(CC(C)C)nc3c(c(=O)c4ccccc4n3C)c2=O)cc1 |
| 63 | CC(C)Cc1nc2c(c(=O)c3ccccc3n2C)c(=O)n1-c1cccc(Cl)c1 |
| 56 | CC(C)Cc1nc2c(c(=O)c3ccccc3n2C)c(=O)n1-c1ccc(Cl)cc1 |
| 44 | Cc1ccc(-n2c(CC(C)C)nc3c(c(=O)c4ccccc4n3C)c2=O)cc1 |
| 103 | CC(C)Cc1nc2c(c(=O)c3ccccc3n2C)c(=O)n1-c1ccccc1 |
| 59 | COc1ccc(-n2c(C3CCCCC3)nc3c(c(=O)c4ccccc4n3C)c2=O)cc1Cl |
| 62 | COc1ccc(-n2c(C3CCCCC3)nc3c(c(=O)c4ccccc4n3C)c2=O)cc1 |
| 80 | Cn1c2ccccc2c(=O)c2c(=O)n(-c3cccc(Cl)c3)c(C3CCCCC3)nc21 |
| 44 | Cn1c2ccccc2c(=O)c2c(=O)n(-c3ccc(Cl)cc3)c(C3CCCCC3)nc21 |
| 27 | Cc1ccc(-n2c(C3CCCCC3)nc3c(c(=O)c4ccccc4n3C)c2=O)cc1 |
| 29 | Cn1c2ccccc2c(=O)c2c(=O)n(-c3ccccc3)c(C3CCCCC3)nc21 |

Target: D(1A) dopamine receptor (Homo sapiens, UniProt P21728)
Sequence (P21728 whole entry): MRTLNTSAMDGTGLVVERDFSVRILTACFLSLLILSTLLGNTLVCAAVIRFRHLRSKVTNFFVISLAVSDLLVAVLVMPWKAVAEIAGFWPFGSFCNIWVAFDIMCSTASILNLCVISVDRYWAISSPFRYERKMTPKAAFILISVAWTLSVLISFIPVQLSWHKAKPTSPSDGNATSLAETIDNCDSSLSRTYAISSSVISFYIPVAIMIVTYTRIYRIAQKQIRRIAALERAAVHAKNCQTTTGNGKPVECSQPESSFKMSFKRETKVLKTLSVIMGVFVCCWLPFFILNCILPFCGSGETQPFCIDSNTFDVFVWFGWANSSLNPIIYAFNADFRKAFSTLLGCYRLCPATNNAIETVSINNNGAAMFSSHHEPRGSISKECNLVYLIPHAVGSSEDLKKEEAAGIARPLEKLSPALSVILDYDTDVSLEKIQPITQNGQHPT
Assay: Positive allosteric modulator activity at human dopamine D1 receptor expressed in HEK293 cells assessed as potentiation of dopamine-induced cAMP accumulation by measuring dopamine EC50 at 50 uM measured after 30 mins by HitHunter assay (Rvb = 214 nM)

| EC50 [nM] | Structure (SMILES) |
| --- | --- |
| 123 | Cn1c2ccccc2c(=O)c2c(=O)n(-c3ccccc3)c(C3CCCCC3)nc21 |
